{"source": "paper PMC4786259", "about": "(PLoS ONE, 2016)", "key": {"male B6129 hybrid mice": {"test_system": "male B6129 hybrid mice", "assay": "Clozapine drug discrimination (substitution)", "assay_type": "in vivo", "procedure": "Adult male B6129 hybrid mice (n = 12) were trained to respond under a FR10 schedule and were reinforced by presentation of sweetened milk as described previously. The drug and vehicle lever positions were counterbalanced between groups to control for olfactory cues. All injections were given subcutaneously with a pre-session injection time of 30 minutes. Training occurred on a double alternation injection schedule with two days of VEH followed by two days of CLZ and repeated (VEH, VEH, CLZ, CLZ, VEH, VEH etc.). In order for a mouse to pass a training day it had to meet three criteria: (1) complete the first fixed ratio (FR) on the condition-appropriate lever, (2) at least 80% of the total responses were made on the condition-appropriate lever, and (3) at least 10 responses per minute were made during the session. Drug testing was conducted approximately two times per week with at least two training days in between. To be eligible for testing, mice were required to pass both a drug and vehicle training day consecutively. […] Responses on both levers were reinforced.\nA p<0.05 was considered significant."}, "dopamine D2 receptor": {"target": "T1, dopamine D2 receptor (Homo sapiens, UniProt P14416)", "T1 construct": "expressed in transfected cells; host or cells: HEKT cells (ATCC)", "T1 sequence (P14416 whole entry, species assumed)": "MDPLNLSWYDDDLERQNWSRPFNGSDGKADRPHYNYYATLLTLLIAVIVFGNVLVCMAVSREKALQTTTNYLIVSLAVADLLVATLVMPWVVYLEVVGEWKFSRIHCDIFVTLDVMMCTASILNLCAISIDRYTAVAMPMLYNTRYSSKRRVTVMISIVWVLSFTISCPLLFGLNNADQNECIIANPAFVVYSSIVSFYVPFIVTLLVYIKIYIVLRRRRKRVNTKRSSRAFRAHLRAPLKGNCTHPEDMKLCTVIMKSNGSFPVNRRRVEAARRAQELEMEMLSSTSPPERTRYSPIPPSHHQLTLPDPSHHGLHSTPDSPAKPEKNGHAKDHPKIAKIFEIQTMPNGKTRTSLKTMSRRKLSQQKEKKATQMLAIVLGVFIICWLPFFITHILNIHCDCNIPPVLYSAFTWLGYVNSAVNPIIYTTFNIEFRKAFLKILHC", "assay_type": "cell-based"}, "5-HT1D": {"target": "5-HT1D (Homo sapiens, UniProt P28221)", "sequence (P28221 whole entry, species assumed)": "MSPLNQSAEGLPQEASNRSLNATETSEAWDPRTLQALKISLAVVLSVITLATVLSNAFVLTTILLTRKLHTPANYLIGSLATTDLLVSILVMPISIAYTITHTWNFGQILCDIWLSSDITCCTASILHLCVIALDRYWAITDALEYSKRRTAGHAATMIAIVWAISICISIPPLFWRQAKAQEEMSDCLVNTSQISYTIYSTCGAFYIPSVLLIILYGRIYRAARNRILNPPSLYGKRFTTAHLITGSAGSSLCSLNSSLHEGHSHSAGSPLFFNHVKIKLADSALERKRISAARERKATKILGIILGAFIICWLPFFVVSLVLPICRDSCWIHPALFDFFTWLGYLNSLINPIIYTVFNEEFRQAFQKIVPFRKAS", "assay": "PDSP radioligand competition binding", "conditions": "radioligand [^3H]5-CT; read-out: In vitro Affinity"}, "[1]": {"assay": "Dynamic light scattering to test for colloidal aggregation", "assay_type": "physicochemical", "procedure": "Measurements were made at room temperature using a DynaPro MS/X (Wyatt Technology) with a 55 mW laser at 826.6 nm. The laser power was 100%, and the detector angle was 90° with samples run in duplicate."}, "rats": {"test_system": "rats", "set-up": "method as in PMID 100809", "conditions": "dose range 25–100 mg/kg; cited from earlier work"}, "5-HT5A": {"target": "5-HT5A (Homo sapiens, UniProt P47898)", "sequence (P47898 whole entry, species assumed)": "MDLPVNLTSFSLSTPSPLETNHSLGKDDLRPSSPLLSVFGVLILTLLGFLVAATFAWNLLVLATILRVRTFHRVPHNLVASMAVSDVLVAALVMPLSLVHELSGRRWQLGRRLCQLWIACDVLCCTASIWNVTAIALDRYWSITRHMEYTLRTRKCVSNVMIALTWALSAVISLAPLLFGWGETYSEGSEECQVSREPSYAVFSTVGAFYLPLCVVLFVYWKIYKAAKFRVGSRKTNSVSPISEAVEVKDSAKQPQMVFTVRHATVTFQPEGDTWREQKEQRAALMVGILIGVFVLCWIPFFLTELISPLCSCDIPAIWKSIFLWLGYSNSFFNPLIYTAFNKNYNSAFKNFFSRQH", "assay": "PDSP radioligand competition binding", "conditions": "radioligand [^3H]LSD; read-out: In vitro Affinity"}, "male C57BL/6J mice [2]": {"test_system": "male C57BL/6J mice", "assay": "AMPH-induced hyperlocomotor activity (open field)", "assay_type": "in vivo", "conditions": "3 mg/kg pre-treatment, 3 mg/kg AMPH; between 35–50 min, vs amphetamine alone", "procedure": "Locomotor activity was assessed in AccuScan activity monitors (41X41X30 cm; AccuScan Instruments, Columbus, OH) with photocells spaced at 1.52 cm as described. In these monitors, the photocells create a grid of light beams, and breaks in the light beams (caused by the mouse) are recorded. The Accuscan software then calculates the total distance travelled (amongst other measurements) by analyzing the sequential order of beam breaks in the grid. Horizontal activity was measured as the total distance traveled in centimeters and was recorded in 5-minute bins. PCP-induced hyperlocomotor activity: mice (n = 16) previously acclimated to activity chambers were placed into the chambers for 15 minutes. […] Subsequently, mice were injected with 6.0 mg/kg PCP (i.p.) and returned to the chamber for 90 minutes. Induction of AMPH-induced hyperlocomotor activity followed an identical protocol except locomotor activity was recorded for a total of 75 minutes and 3 mg/kg AMPH was used (i.p.)."}, "5-HT2A": {"target": "T2, 5-HT2A (Homo sapiens, UniProt P28223)", "T2 construct": "expressed in transfected cells", "T2 sequence (P28223 whole entry, looked up)": "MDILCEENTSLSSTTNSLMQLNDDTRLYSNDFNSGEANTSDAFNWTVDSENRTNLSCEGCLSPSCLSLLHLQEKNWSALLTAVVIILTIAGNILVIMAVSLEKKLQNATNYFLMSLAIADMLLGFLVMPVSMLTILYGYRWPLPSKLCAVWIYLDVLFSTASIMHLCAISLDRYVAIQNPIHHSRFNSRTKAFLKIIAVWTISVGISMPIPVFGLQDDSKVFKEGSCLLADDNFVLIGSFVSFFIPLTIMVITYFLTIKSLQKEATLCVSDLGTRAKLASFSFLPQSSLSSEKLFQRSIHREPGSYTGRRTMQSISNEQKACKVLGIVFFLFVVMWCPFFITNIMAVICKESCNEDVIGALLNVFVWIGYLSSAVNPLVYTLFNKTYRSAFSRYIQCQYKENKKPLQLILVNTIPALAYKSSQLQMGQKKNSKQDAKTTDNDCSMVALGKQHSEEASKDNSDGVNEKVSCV", "assay": "PDSP radioligand competition binding", "conditions": "radioligand [^3H]Ketanserin; read-out: In Vitro Affinity"}, "5-HT1A": {"target": "T3, 5-HT1A (Homo sapiens, UniProt P08908)", "T3 construct": "expressed in transfected cells", "T3 sequence (P08908 1-422)": "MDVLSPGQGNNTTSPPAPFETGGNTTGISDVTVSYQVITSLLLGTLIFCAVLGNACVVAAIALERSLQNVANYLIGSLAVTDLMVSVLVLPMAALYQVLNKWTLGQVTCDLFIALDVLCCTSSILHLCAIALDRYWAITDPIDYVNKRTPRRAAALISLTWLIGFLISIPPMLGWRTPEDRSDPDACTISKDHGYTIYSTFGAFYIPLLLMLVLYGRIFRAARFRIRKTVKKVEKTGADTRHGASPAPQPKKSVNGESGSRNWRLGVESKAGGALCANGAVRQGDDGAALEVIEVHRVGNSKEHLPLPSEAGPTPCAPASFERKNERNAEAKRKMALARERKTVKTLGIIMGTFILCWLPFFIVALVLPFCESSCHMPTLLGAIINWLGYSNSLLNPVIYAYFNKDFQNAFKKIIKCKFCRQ", "assay": "PDSP receptor functional assay", "assay_type": "cell-based"}, "C57BL/6J mice": {"test_system": "C57BL/6J mice", "assay": "Prepulse inhibition, PCP-disrupted", "assay_type": "in vivo"}, "α1B": {"target": "α1B (Homo sapiens, UniProt P35368)", "sequence (P35368 whole entry)": "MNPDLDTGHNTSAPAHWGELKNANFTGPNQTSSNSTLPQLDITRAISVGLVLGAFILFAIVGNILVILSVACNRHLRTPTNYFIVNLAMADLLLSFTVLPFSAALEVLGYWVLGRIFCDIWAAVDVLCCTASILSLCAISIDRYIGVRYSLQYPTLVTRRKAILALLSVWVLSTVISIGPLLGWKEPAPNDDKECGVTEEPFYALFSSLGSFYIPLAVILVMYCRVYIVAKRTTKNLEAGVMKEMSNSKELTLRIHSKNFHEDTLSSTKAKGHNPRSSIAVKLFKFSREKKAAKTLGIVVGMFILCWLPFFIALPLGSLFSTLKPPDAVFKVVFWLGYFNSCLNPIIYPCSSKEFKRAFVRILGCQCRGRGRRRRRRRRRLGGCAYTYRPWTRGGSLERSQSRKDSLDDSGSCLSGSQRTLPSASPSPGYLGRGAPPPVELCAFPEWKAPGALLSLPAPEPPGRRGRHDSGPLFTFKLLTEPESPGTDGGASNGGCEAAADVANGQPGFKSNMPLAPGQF", "assay": "PDSP radioligand competition binding", "conditions": "radioligand [^3H]Prazosin; read-out: In vitro Affinity"}, "V1A": {"target": "V1A (Homo sapiens, UniProt P37288)", "sequence (P37288 whole entry)": "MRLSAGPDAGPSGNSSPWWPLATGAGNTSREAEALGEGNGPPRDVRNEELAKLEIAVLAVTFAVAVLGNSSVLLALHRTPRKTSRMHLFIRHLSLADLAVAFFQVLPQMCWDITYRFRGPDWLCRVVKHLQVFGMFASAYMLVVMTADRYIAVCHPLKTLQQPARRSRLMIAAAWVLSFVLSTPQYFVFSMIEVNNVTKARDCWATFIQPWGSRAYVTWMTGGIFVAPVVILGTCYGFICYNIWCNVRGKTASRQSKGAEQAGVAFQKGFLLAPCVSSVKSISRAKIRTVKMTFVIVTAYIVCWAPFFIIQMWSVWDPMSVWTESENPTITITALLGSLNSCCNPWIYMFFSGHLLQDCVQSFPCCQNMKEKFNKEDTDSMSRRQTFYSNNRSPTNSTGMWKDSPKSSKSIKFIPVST", "assay": "PDSP radioligand competition binding", "conditions": "radioligand [^3H]Vasopressin; read-out: In vitro Affinity"}, "male C57BL/6J mice [3]": {"test_system": "male C57BL/6J mice", "assay": "DOI-induced head-twitch response", "assay_type": "in vivo"}, "α2C": {"target": "α2C (Homo sapiens, UniProt P18825)", "sequence (P18825 whole entry)": "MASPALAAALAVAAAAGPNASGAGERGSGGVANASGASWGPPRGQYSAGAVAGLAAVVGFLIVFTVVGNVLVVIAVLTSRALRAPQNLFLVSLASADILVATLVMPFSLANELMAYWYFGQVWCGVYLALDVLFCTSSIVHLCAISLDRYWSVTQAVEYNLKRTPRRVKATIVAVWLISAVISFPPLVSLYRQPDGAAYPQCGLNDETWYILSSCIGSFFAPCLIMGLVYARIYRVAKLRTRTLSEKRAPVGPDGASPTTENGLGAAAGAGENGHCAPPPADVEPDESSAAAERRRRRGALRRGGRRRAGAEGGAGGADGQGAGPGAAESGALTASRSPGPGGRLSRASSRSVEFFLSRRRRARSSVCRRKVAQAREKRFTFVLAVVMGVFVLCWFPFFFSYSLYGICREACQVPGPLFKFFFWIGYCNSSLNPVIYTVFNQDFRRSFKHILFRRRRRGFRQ", "assay": "PDSP radioligand competition binding", "conditions": "radioligand [^3H]Rauwolscine; read-out: In vitro Affinity"}, "5-HT2B": {"target": "T4, 5-HT2B (Homo sapiens, UniProt P41595)", "T4 construct": "expressed in transfected cells", "T4 sequence (P41595 whole entry, species assumed)": "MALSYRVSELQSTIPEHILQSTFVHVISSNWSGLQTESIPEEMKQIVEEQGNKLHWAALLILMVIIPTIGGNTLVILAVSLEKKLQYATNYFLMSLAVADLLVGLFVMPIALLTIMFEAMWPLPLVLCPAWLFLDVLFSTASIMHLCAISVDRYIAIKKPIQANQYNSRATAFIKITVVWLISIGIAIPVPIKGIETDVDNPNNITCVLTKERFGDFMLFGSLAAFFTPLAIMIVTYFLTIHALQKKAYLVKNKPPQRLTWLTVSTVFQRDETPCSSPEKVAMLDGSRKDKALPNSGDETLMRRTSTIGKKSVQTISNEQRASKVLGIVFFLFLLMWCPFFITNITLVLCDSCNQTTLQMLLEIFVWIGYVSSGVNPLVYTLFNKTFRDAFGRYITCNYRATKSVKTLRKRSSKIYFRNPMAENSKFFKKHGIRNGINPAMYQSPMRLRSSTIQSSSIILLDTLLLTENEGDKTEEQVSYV", "assay": "PDSP radioligand competition binding", "conditions": "radioligand [^3H]LSD; read-out: In Vitro Affinity"}, "5-HT6": {"target": "T5, 5-HT6 (Homo sapiens, UniProt P50406)", "T5 construct": "expressed in transfected cells", "T5 sequence (P50406 whole entry, species assumed)": "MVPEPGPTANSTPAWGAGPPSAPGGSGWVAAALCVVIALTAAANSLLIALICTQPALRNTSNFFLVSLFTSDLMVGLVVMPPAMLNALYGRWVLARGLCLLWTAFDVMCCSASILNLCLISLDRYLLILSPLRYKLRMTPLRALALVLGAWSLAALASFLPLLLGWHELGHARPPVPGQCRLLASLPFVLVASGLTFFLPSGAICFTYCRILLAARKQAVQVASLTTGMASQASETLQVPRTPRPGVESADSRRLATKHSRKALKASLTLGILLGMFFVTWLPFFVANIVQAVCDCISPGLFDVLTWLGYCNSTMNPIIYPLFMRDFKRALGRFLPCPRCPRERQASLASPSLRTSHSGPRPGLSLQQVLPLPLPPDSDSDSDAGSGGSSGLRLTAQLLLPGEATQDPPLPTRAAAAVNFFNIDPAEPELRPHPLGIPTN", "assay": "PDSP radioligand competition binding", "conditions": "radioligand [^3H]LSD; read-out: In Vitro Affinity"}, "5-HT7": {"target": "T6, 5-HT7 (Homo sapiens, UniProt P34969)", "T6 construct": "expressed in transfected cells", "T6 sequence (P34969 whole entry, species assumed)": "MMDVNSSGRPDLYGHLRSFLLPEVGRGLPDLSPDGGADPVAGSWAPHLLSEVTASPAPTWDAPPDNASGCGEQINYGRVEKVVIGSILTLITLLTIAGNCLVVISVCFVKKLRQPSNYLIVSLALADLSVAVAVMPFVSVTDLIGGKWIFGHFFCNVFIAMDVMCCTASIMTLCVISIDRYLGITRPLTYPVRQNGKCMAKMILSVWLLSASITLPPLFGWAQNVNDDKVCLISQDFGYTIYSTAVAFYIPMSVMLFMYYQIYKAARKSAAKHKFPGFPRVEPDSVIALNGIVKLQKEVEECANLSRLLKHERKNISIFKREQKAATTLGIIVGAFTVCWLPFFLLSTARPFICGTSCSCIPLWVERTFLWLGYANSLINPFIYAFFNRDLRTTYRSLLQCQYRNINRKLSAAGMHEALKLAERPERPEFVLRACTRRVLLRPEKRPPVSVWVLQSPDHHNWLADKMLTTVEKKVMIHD", "assay": "PDSP receptor functional assay", "assay_type": "cell-based"}}, "note": "Entries after “also recorded” stand apart in the source; their conditions may differ. Read-outs that look alike come from different tables or passages of the source."}
{"smiles": "COc1cc2c3c(c1OC)-c1ccccc1C[C@H]3N(C)CC2", "note": "[nuciferine]", "values": [{"measurement": "drug lever responding", "setting": "male B6129 hybrid mice; 10.0 mg/kg s.c., animals trained on 1.25 mg/kg clozapine", "result": 80.63, "unit": "%"}, {"measurement": "ED50", "setting": "male B6129 hybrid mice; Mus musculus, sc, 95% CI 3.09–9.48 mg/kg", "result": 5.42, "unit": "mg/kg"}, {"measurement": "substitution for clozapine's discriminative cue", "setting": "male B6129 hybrid mice; lower doses 0.1 mg/kg–3.0 mg/kg", "result": "failed to produce substitution"}, {"measurement": "Function Type", "setting": "dopamine D2 receptor", "result": "Partial agonist"}, {"measurement": "Emax", "setting": "dopamine D2 receptor; D2 partial agonist activity, Fig 4A", "result": "67 % of dopamine"}, {"measurement": "Ki", "setting": "5-HT1D", "result": 518, "unit": "nM"}, {"measurement": "light scattering above background", "setting": "[1]; <= 10 μM, aqueous buffer", "result": "did not scatter light above background"}, {"measurement": "colloidal aggregate formation", "setting": "[1]; concentrations up to 10 μM", "result": "does not form aggregates"}, {"measurement": "hyperlocomotor effect of amphetamine", "setting": "rats", "result": "inhibits the hyperlocomotor effect of amphetamine"}, {"measurement": "Ki", "setting": "5-HT5A", "result": 1110, "unit": "nM"}, {"measurement": "amphetamine induced hyperlocomotion", "setting": "male C57BL/6J mice [2]", "result": "significantly higher motor activity"}, {"measurement": "Ki", "setting": "5-HT2A", "result": 312, "unit": "nM"}, {"measurement": "Function Type", "setting": "5-HT1A", "result": "Agonist"}, {"measurement": "EC50", "setting": "5-HT1A; 5-HT1A agonist, read-out: EC50", "result": 3200, "unit": "nM"}, {"measurement": "EC50", "setting": "5-HT1A; agonist, read-out: Functional EC50", "result": 3230, "unit": "nM"}, {"measurement": "PCP-disrupted PPI", "setting": "C57BL/6J mice; 5 mg/kg i.p. before 6 mg/kg PCP", "result": "higher PPI than the PCP-vehicle groups"}, {"measurement": "PCP-disrupted PPI", "setting": "C57BL/6J mice; 10 mg/kg i.p. before 6 mg/kg PCP", "result": "rescued the PCP-disrupted PPI"}, {"measurement": "Ki", "setting": "α1B", "result": 2000, "unit": "nM"}, {"measurement": "Ki", "setting": "V1A", "result": 10000, "unit": "nM"}, {"measurement": "DOI-induced head-twitches", "setting": "male C57BL/6J mice [3]; 1 mg/kg i.p., 15 min prior to 1.0 mg/kg DOI", "result": "no statistical effect"}, {"measurement": "DOI-induced head-twitches", "setting": "male C57BL/6J mice [3]; 3 mg/kg i.p., 15 min prior to 1.0 mg/kg DOI, at 5, 10, 15 and 20 min", "result": "decreased head-twitches; also recorded: statistically significant (p<0.05) reductions in the numbers of head-twitches"}, {"measurement": "DOI-induced head-twitches", "setting": "male C57BL/6J mice [3]; 3 mg/kg i.p., 30 min prior to DOI", "result": "statistically significant (p<0.05) reductions in the numbers of head-twitches"}, {"measurement": "DOI-induced head-twitches", "setting": "male C57BL/6J mice [3]; 3 mg/kg i.p., 45 min prior to DOI", "result": "failed to show significant alterations in head-twitches"}, {"measurement": "DOI-induced head-twitches", "setting": "male C57BL/6J mice [3]; 3 mg/kg i.p., 60 min prior to DOI", "result": "failed to show significant alterations in head-twitches"}, {"measurement": "DOI-induced head-twitches", "setting": "male C57BL/6J mice [3]; 3 mg/kg s.c., 15 min prior to 1.0 mg/kg DOI, at 10, 15 and 20 min", "result": "attenuated DOI-induced head-twitches"}, {"measurement": "DOI-induced head-twitches", "setting": "male C57BL/6J mice [3]; 10 mg/kg i.p., 15 min prior to 1.0 mg/kg DOI, at 5, 10, 15 and 20 min", "result": "decreased head-twitches"}, {"measurement": "Ki", "setting": "α2C", "result": 693, "unit": "nM"}, {"measurement": "Ki", "setting": "5-HT2B", "result": 41, "unit": "nM"}, {"measurement": "Ki", "setting": "5-HT6", "result": 268, "unit": "nM"}, {"measurement": "EC50", "setting": "5-HT7", "result": 150, "unit": "nM"}, {"measurement": "Function Type", "setting": "5-HT7", "result": "Inverse agonist"}, {"measurement": "IC50", "setting": "5-HT7", "result": 150, "unit": "nM"}]}
